# Patent publication US20230390319A1, “INTERFERON GENE STIMULATOR COMPOSITION COMPRISING INDOLIZINE DERIVATIVE AS ACTIVE INGREDIENT” (AJOU UNIVERSITY INDUSTRY-ACADEMIC COOPERATION FOUNDATION, priority 2020, published 2023)
# “Also recorded” adds a separate entry of the source.
# How the values were obtained:
# [1] = test system: IFNB, CXCL10, IFIT3, ISG15, IRF7 and OAS1; test: Gene expression analysis by real-time quantitative PCR in THP-1 cells; assay type: cell-based, Human; conditions: with cGAMP (1 μg/ml), 6 hours, FIG. 4
# Experimental: To confirm gene expression, THP-1 cells were placed in a 24-well plate (SPL) and treated with the compound of the present invention and cGAMP (1 μg/ml) for 6 hours. After culturing, RNA was extracted from the cells using NucleoSpin RNA Plus (MN). mRNA expression levels of IFNB, CXCL10, IFIT3, ISG15, IRF7 and OAS1 were measured by real-time qPCR (CFX96 Real-Time PCR Detection System, Bio-Rad) using IQ SYBR Green Supermix (Bio-Rad). GAPDH was used as a housekeeping gene to normalize cytokine mRNA levels.
# STING KO cell line = test: ISRE reporter assay in THP-1 STING KO cell line; assay type: cell-based, Human; conditions: co-treatment with cGAMP, FIG. 1
# Experimental: (§1) Human monocytic THP-1 wild-type (WT) and STING knockout (KO) cell lines were obtained from InvivoGen. Cells were cultured in 1×RPMI 1640 medium containing 10% fetal bovine serum (FBS, Hyclone), 2.05 mM L-glutamine (Hyclone) and 1% penicillin (Corning) in a humidified incubator at 37° C. under 5% CO2.
# To confirm immune responses, THP-1 cells were placed in 384-well plates (Grenier), and treated with each compound and cGAMP (1 μg/ml), and after 24 hours, ISRE activity was analyzed. QUANTI-Luc assay (InvivoGen) was performed using the cell culture supernatant to confirm the luciferase reporter gene signal. Fluorescent signals were measured using a TECAN micro plate reader SPARK, and the results were normalized to DMSO control.
# human IFN-β and IP-10 = test: ELISA of cytokine levels in THP-1 cell supernatants; assay type: cell-based; conditions: FIG. 3
# Experimental: Cytokine levels were determined by ELISA analysis. THP-1 cells were placed in a 96-well U bottom plate and tested after 24 hours of treatment with each compound and cGAMP (1 μg/ml). After culturing, cell supernatants were collected and human IFN-β and IP-10 levels were determined by ELISA analysis.
# 4T1 tumor cells = test: In vivo anticancer activity, 4T1 tumor in BALB/c mice; conditions: Compound 42 20 mg/kg intravenous once daily + cGAMP 2 μg intratumoral every 4 days, compared to cGAMP alone, FIG. 7
# Experimental: Eight-week-old female BALB/c mice (DBL) were used for experiments and inoculated subcutaneously with 0.5×10^6 4T1 tumor cells using PBS as the vehicle on the right flank. Following tumor implantation, mice were randomized into treatment groups, each consisting of N=4 (vehicle N=1). On day 5 after tumor cell injection, when the tumor volume reached about 100 mm^3, Compound 42 or vehicle was administrated by intravenous injection (20 mg/kg) or vehicle (5% DMSO, 5% Tween 80 in PBS). 2′3′-cGAMP (InvivoGen) was injected by intratumoral injection (2 μg in PBS). Compound 42 was injected once daily, and cGAMP was injected once every 4 days. Tumor and body weight measurements were performed using digital calipers and a weigh scale, respectively. Tumor volume was estimated using the following Equation 1:
# Tumor volume=(length×width^2)/2 [Equation 1]
# Mice were euthanized when the tumor volume reached about 2,000 mm^3.
# STING = test: Activity comparison with STING pathway-activating therapeutic agent MV658; assay type: cell-based; conditions: compared with ENPP inhibitor MV658, FIG. 6
# THP-1 cells = test: Cell viability assay (CellTiter Clo) in THP-1 cells; assay type: cell-based, Human
# Experimental: as §1
# Cells were analyzed using CellTiter Clo (CTG, Promega). […] was measured using a TECAN micro plate reader SPARK. Results were normalized to DMSO control.
# THP-1 cells were co-treated with each of 86 indolizine derivatives and a very small amount of cGAMP (1 μg/ml), the immune response of the THP-1 cells was examined by ISRE reporter assay, and the cytotoxicity of co-treatment was also evaluated (Table 1). All results were compared by normalization to the reporter assay results obtained by treatment with cGAMP alone. […] Thus, Compound 42 was used in subsequent experiments.
structure (smiles),measurement,setting,value
CC(=O)c1ccc(-c2cc(C(=O)c3ccc(C(F)(F)F)cc3)n3ccccc23)cc1 [Compound 42],"cGAMP-induced expression of interferon-stimulated genes (IFN-beta, IP-10, ISG15, IRF7, IFIT3, OAS1)",[1],significantly increased
same,ISRE reporter effect in STING KO cell line,STING KO cell line,no effect
same,"cytokine secretion (IFN-β, IP-10)","human IFN-β and IP-10; co-treatment with cGAMP compared to cGAMP alone, concentration-dependent",increased cytokine secretion very effectively
same,"immune response, compound alone",human IFN-β and IP-10; treatment with Compound 42 alone,induced no immune response
same,tumor volume,4T1 tumor cells,effectively reduced the tumor volume
same,degree of STING-dependent immune response activation,STING,better activity
same,Normalized cell viability,"THP-1 cells; THP-1 cells, 20 μM of each compound, co-treated with cGAMP (1 μg/ml)",1.20
same,cytotoxicity of co-treatment,THP-1 cells; co-treatment with cGAMP,no cytotoxicity; also recorded: did not cause toxicity
